This note sets out measurements from patent US20260209152A1, “Substituted Hydroxystilbene Compounds and Derivatives, Synthesis and Uses Thereof” (Kynan Duke IP, LLC, priority 2019, published 2026).

SMILES strings stand for the structures. pIC50: −log10 of the molar value. Read-outs that look alike come from different tables or passages of the source.

Type in all cases: cell-based, human
Assay [1] relates to Pancreatic MIA PaCa-2. In words: CellTiter Glo cell viability assay. Conditions: read-out: IC50. How it is done:
(§1) 1.7*10^3 cells/well were seeded in quadruplicates in 96-well plate after plating. Drugs were added at 5 μM and 2-fold dilutions over 18 concentrations (0.000038146-5 […] range) to generate a dose-response curve. Cell growth was assessed on day 1, 3 and 5 after drug treatments using the CellTiter Glo Luminescence Cell Viability Assay (Promega) according to manufacturer's protocol. Thermo Scientific Varioskan LUX Multimode Microplate instrument was used for plate reading. Data are expressed as mean luminescence (arbitrary units) ±S.D.
(§2) Cell Viability Assays were employed to determine the concentration of Compound 1 (KYN-001) and analogues where the response is reduced by half. For each treatment of cancer cells, 1, 2, 5, 10 and 20 μM solutions of compounds were applied. GraphPad Prism 7 software was used to fit dose response curves. Relative Luminescence Units were plotted against the log values of the doses used and the nonlinear regression model was used for data analysis.
(§3) The protocol for cell proliferation was optimized for Compound 8 (KYN-119) to enable a more accurate assessment of its low IC50 value. In this protocol, 18 dosages (2 fold dilutions ranging from 0.000038146 to 5 μM) were applied to cells seeded in 96-well plates, and Luminescence was measured after 1, 3 and 5 days upon treatments.
Day 3 upon treatment of MIA PaCa_2 pancreatic cancer cells, 24 h after plating (11 dilutions), as assessed by CellTiter Glow Assay.

Assay [2] concerns Cancer cells including pancreatic, bladder, kidney, colon, breast, lung, liver and osteosarcomas. The assay is described as follows: CellTiter Glo cell viability assay, panel of cancer cell lines. The conditions noted are these: SAR discussion based on IC50 values in Tables 1 to 5; compared with 1 [KYN-001]. How it is done: Compounds 1 to 15 were evaluated and their effect on cancer growth examined in cell viability assays on multiple cancer types (Tables 1 to 5). Cancer cells including pancreatic, bladder, kidney, colon, breast, lung, liver and osteosarcomas obtained from ATCC (American Type Culture Collection) were authenticated before use by Short Tandem Repeat genomic analysis (Reid Y, Storts D, Riss T and Minor L. Authentication of Human Cell Lines by STR DNA Profiling Analysis. 2013 May 1. In: Markossian S, Sittampalam G S, Grossman A, et al., editors. Assay Guidance Manual. Bethesda (MD): Eli Lilly & Company and the National Center for Advancing Translational Sciences; 2004.). Experimental protocol for each cancer cell line was verified and optimized according to literature reports before use (Tables 1 to 3).
as §1, §2, §3
Background: In ATP-based viability assays light output follows the ATP content of the culture.

In assay [3] the test system is Kidney A-498. In words: CellTiter Glo cell viability assay. Conditions: read-out: IC50. How it is done:
1.7*10^3 cells/well were seeded in quadruplicates in 96-well plate after plating. […] Cell growth was assessed on day 1, 3 and 5 after drug treatments using the CellTiter Glo Luminescence Cell Viability Assay (Promega) according to manufacturer's protocol. Thermo Scientific Varioskan LUX Multimode Microplate instrument was used for plate reading. Data are expressed as mean luminescence (arbitrary units) ±S.D.
Cell Viability Assays were employed to determine the concentration of Compound 1 (KYN-001) and analogues where the response is reduced by half. […] GraphPad Prism 7 software was used to fit dose response curves. Relative Luminescence Units were plotted against the log values of the doses used and the nonlinear regression model was used for data analysis.
The protocol for cell proliferation was optimized for Compound 8 (KYN-119) to enable a more accurate assessment of its low IC50 value. […]

[4] abbreviates: Homo sapiens, MIA PaCa-2, Table 5A: 11 dilutions 3-0.00001 μM, single experiments Exp E-K.
[5] abbreviates: Homo sapiens, A498, Table 5A: 11 dilutions 3-0.00001 μM, single experiments Exp E-K.
Where [6] appears, read: Table 5A: 11 dilutions 3-0.00001 μM, single experiments Exp E-K.
The mark [7] stands for this setting: Homo sapiens, MIA PaCa-2, 72 h, Table 4: 3 Days of treatment, 18 2-fold dilutions 5-0.00003 μM, Average (1, 8) or single Exp A-D.
Setting [8] is: Table 5A: 11 dilutions 3-0.00001 μM, single experiments Exp E-K, listed as KYN-139.
Setting [9] is: Homo sapiens, A498, 72 h, Table 4: 3 Days of treatment, 18 2-fold dilutions 5-0.00003 μM, Average (1, 8) or single Exp A-D.
The mark [10] stands for this setting: Table 5A: 11 dilutions 3-0.00001 μM, single experiments Exp E-K, listed as KYN-140.

Consider `CCOc1cc(O)cc(/C=C/c2ccc(O)c(NC=O)c2)c1CC=C(C)C` [Compound 41, (E)-N-(5-(3-Ethoxy-5-hydroxy-2-(3-methylbut-2-en-1-yl)styryl)-2-hydroxyphenyl)formamide], for which the pIC50 – broadly, the IC50 on a negative log10 scale, so that one unit is a factor of ten – in assay [1] (setting [4]) is < 5.52. Further, in assay [2], the “Cancer cell viability inhibition, statement in words” value (from here on “Cancer cell viability inhibition”) is “inactive or weakly active”.
On to `COc1cc(/C=C/c2cc(O)cc(OC)c2CC=C(C)C)cc(O)c1O` [Compound 18, (E)-5-(5-Hydroxy-3-methoxy-2-(3-methylbut-2-en-1-yl)styryl)-3-methoxybenzene-1,2-diol], for which the pIC50 is ~6.00 in assay [1] (setting [4]) and ~5.52 in assay [3] (setting [5]).
As for `COc1cc(/C=C/c2cc([N+](=O)[O-])cc(OC)c2CC=C(C)C)ccc1O` [Compound 42, (E)-2-Methoxy-4-(3-methoxy-2-(3-methylbut-2-en-1-yl)-5-nitrostyryl)phenol], in assay [3] (setting [5]), the pIC50 was ~5.52. Moreover, the “Cancer cell viability inhibition” value in assay [2] was “almost complete loss of anticancer activity”.
On to `CCOc1cc(O)cc(/C=C/c2ccc(NCC(=O)OC)c(OC)c2)c1CC=C(C)C` [Compound 34, Methyl (E)-(4-(3-ethoxy-5-hydroxy-2-(3-methylbut-2-en-1-yl)styryl)-2-methoxyphenyl)glycinate], for which the values for the negative-log IC50 (pIC50) in assay [1] (setting [4]) and in assay [1] (setting [6]) were 6.00 to 7.00 and 6.76, respectively.
`[H]/N=C(\N)Nc1ccc(C=Cc2cc(O)cc(OCC)c2CC=C(C)C)cc1OC` [Compound 38, (E)-1-(4-(3-ethoxy-5-hydroxy-2-(3-methylbut-2-en-1-yl)styryl)-2-methoxyphenyl)guanidine]: the pIC50 was < 5.52 in assay [1] (setting [4]), 6.00 to 7.00 in assay [3] (setting [5]) and ~7.00 in assay [3] (setting [6]).
`CCOc1cc(O)cc(/C=C/c2ccc(NC=O)c(O)c2)c1CC=C(C)C` [Compound 40, (E)-N-(4-(3-Ethoxy-5-hydroxy-2-(3-methylbut-2-en-1-yl)styryl)-2-hydroxyphenyl)formamide]: the results for the pIC50 in assay [1] (setting [4]) and in assay [3] (setting [5]) were < 5.52 and 5.53, respectively. Further, the “Cancer cell viability inhibition” value in assay [2] is reported as “very strongly weakened activity”.
As to `C/C=C\Cc1c(/C=C/c2ccc(O)c(OC)c2)cc(O)cc1OC` [Compound 3, 4-((Z)-but-2-en-1-yl)-3-((E)-4-hydroxy-3-methoxystyryl)-5-methoxyphenol], the pIC50 in assay [1] (setting [7]) is 6.42; in assay [1] (setting [8]), 6.28; in assay [3] (setting [9]) it was 6.44; in assay [3] (setting [8]), 6.26.
Consider `C/C=C/Cc1c(/C=C/c2ccc(O)c(OC)c2)cc(O)cc1OCC` [Compound 5, 4-((E)-But-2-en-1-yl)-3-ethoxy-5-((E)-4-hydroxy-3-methoxystyryl)phenol], for which the negative-log IC50 (pIC50) was 7.56 in assay [1] (Table 5A: 11 dilutions 3-0.00001 μM, single experiments Exp E-K, listed as KYN-153) and 5.92 in assay [3] (setting [5]).
Take `COc1cc(/C=C/c2cc(O)cc(OC)c2CC=C(C)C)ccc1C(=O)O` [Compound 21, (E)-4-(5-Hydroxy-3-methoxy-2-(3-methylbut-2-en-1-yl)styryl)-2-methoxybenzoic acid]: the pIC50 was < 5.52 in assay [1] (setting [4]), < 5.52 in assay [3] (setting [5]) and ~5.52 in assay [3] (setting [6]).
For `COc1cc(/C=C/c2cc(O)cc(C(F)(F)F)c2CC=C(C)C)ccc1O` [Compound 46, (E)-3-(4-hydroxy-3-methoxystyryl)-4-(3-methylbut-2-en-1-yl)-5-(trifluoromethyl)phenol], the “Cancer cell viability inhibition” value in assay [2] is on record as “complete loss of biological activity”.
For `C=CC(C)c1c(/C=C/c2ccc(O)c(OC)c2)cc(O)cc1OC` (centres unmarked) [Compound 4, (E)-4-(but-3-en-2-yl)-3-(4-hydroxy-3-methoxystyryl)-5-methoxyphenol], the pIC50 is 6.12 in assay [1] (setting [7]), 6.13 in assay [1] (setting [10]), 6.18 in assay [3] (setting [9]) and 6.12 in assay [3] (setting [10]).
As for `COc1cc(/C=C/c2cc(O)cc(OC)c2CC=C(C)C)ccc1NS(C)(=O)=O` [Compound 25, (E)-N-(4-(5-hydroxy-3-methoxy-2-(3-methylbut-2-en-1-yl)styryl)-2-methoxyphenyl)methanesulfonamide], the pIC50 in assay [1] (setting [7]) was 5.11; in assay [3] (setting [5]) it was 4.82.
For `COc1cc(/C=C/c2cc(NC=O)cc(OC)c2CC=C(C)C)ccc1O` [Compound 44, (E)-N-(3-(4-Hydroxy-3-methoxystyryl)-5-methoxy-4-(3-methylbut-2-en-1-yl)phenyl)formamide], the pIC50 in assay [1] (setting [4]) is 5.94; in assay [3] (setting [5]), 5.69. For the same compound, the “Cancer cell viability inhibition” value in assay [2] is “No significant enhancement of activity”.
As for `C/C=C/Cc1c(/C=C/c2ccc(O)c(OC)c2)cc(O)cc1OC` [Compound 2, 4-((E)-but-2-en-1-yl)-3-((E)-4-hydroxy-3-methoxystyryl)-5-methoxyphenol], the pIC50 was 6.92 in assay [1] (setting [7]); 6.00 to 7.00 in assay [1] (setting [4]); 6.87 in assay [1] (setting [6]); 6.93 in assay [3] (setting [9]); 6.00 to 7.00 in assay [3] (setting [5]); 6.88 in assay [3] (setting [6]). Besides, the “Cancer cell viability inhibition” value in assay [2] is “biological activity comparable with 1”.
Take `COc1cc(O)cc(/C=C/c2ccc(O)c(N(C)C)c2)c1CC=C(C)C` [Compound 16, (E)-3-(3-(Dimethylamino)-4-hydroxystyryl)-5-methoxy-4-(3-methylbut-2-en-1-yl)phenol]: the negative-log IC50 (pIC50) in assay [1] (setting [4]) and in assay [3] (setting [5]) was < 5.52 in each case. Moreover, the “Cancer cell viability inhibition” value in assay [2] is “inactive or weakly active”.
Turning to `COc1cc(/C=C/c2cc(N)cc(OC)c2CC=C(C)C)ccc1O` [Compound 43, (E)-4-(5-Amino-3-methoxy-2-(3-methylbut-2-en-1-yl)styryl)-2-methoxyphenol], the pIC50 in assay [1] (setting [4]) and in assay [3] (setting [5]) was ~5.52 throughout. Also, in assay [2], the “Cancer cell viability inhibition” value was “No significant enhancement of activity”.
Take `CCOc1cc(O)cc(/C=C/c2ccc(NC(=O)CN)c(OC)c2)c1CC=C(C)C` [Compound 32, (E)-2-Amino-N-(4-(3-ethoxy-5-hydroxy-2-(3-methylbut-2-en-1-yl)styryl)-2-methoxyphenyl)acetamide]: the pIC50 in assay [3] (setting [5]) is 5.74.
Regarding `COc1cc(/C=C\c2cc(O)cc(OC)c2CC=C(C)C)ccc1NS(C)(=O)=O` [Compound 26, (Z)—N-(4-(5-hydroxy-3-methoxy-2-(3-methylbut-2-en-1-yl)styryl)-2-methoxyphenyl)methanesulfonamide], the “Cancer cell viability inhibition” value in assay [2] is “Total loss of the anti-proliferative effect”.
Take `CCOc1cc(O)cc(/C=C/c2ccc3[nH]c(=O)oc3c2)c1CC=C(C)C` [Compound 52, (E)-6-(3-Ethoxy-5-hydroxy-2-(3-methylbut-2-en-1-yl)styryl)benzo[d]oxazol-2(3H)-one]: the “Cancer cell viability inhibition” value in assay [2] is on record as “no significant activity”.
For `CCOc1cc(O)cc(/C=C/c2ccc(NC(=O)CCC(=O)O)c(OC)c2)c1CC=C(C)C` [Compound 37, (E)-4-((4-(3-Ethoxy-5-hydroxy-2-(3-methylbut-2-en-1-yl)styryl)-2-methoxyphenyl)amino)-4-oxobutanoic acid], in assay [1] (setting [4]), the pIC50 is < 5.52.
Take `COc1cc(O)cc(/C=C/c2cc(O)cc(OC)c2CC=C(C)C)c1` [Compound 19, (E)-3-(3-Hydroxy-5-methoxystyryl)-5-methoxy-4-(3-methylbut-2-en-1-yl)phenol]: the pIC50 in assay [1] (setting [4]) is 6.04; in assay [3] (setting [5]), < 5.52. Also, the “Cancer cell viability inhibition” value in assay [2] is reported as “strongly weakened activity”.
